This is an account of results in PubChem BioAssay (NCI).

Structures are written as SMILES.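 Compound exposure: 48 hours, 5 concentrations, 96-well plates. Abbreviation: GI50, concentration required for 50% inhibition of growth. TGI: concentration producing complete growth inhibition.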

This experiment relates to MDA-MB-468 breast. The experiment is described as follows: NCI-60 cell line screen, 48 h.
`COc1cnc2c(c1)C(=O)c1c-2n(CCCN2CCC(O)CC2)c(=O)c2cc(Cl)ccc12`: the GI50 was 521 nM and the TGI stood at 10800 nM.
In the case of `CCCCCCNCc1cc(C(C)(C)C)cc(CNCCCCCC)c1O`, the GI50 is 1590 nM and the TGI amounted to 3010 nM.
As for `O=C1c2cccnc2C(=O)c2c1c(C(=O)OCCCN1CCCCC1)c1ccccn21`, the GI50 is 314 nM and the TGI was found to be 14500 nM.
Taken in the same sequence, the figures for `CC1=C2C(=C[C@@](C)(COC(=O)c3ccc(S(=O)(=O)F)cc3)[C@@H]2O)C(=O)[C@](C)(O)C12CC2` were 530 nM and 2170 nM.
Regarding `Cc1nc2ccccc2nc1N=Nc1ccccc1`, the GI50 is 21000 nM and the TGI is greater than 100000 nM.
Turning to `CC(=O)/C=C/c1ccc(OCc2ccc(Cl)cc2)cc1`, the GI50 was 161000 nM and the TGI came to 872000 nM.
As for `CC(=O)O[C@H]1C[C@@H]2OC3C=C(C)CCC3(C)[C@@]1(C)[C@@]21CO1` (stereo partly specified), the GI50 is 284 nM and the TGI amounted to 1570 nM.
On to `COc1cc(C)c2sc3ccccc3c(=O)c2c1NCCN(C)C`, for which the GI50 is 2150 nM and the TGI came to 5060 nM.
Turning to `NC(CSSCC(N)C(=O)O)C(=O)O` (stereo unspecified), the GI50 was greater than 100000 nM and the TGI is greater than 100000 nM.
On to `COC(=O)C(C(=O)OC)C(Br)C(Br)C(Br)c1ccccc1` (stereo unspecified), for which the GI50 was 2060 nM and the TGI turned out to be 6180 nM.
Consider `O=C1/C(=C/c2ccc(O)cc2)COc2ccc(O)c(O)c21`, for which the GI50 was 1990 nM and the TGI came to 5690 nM.
With `COc1ccc(CCN2CCC(CN(C)Cc3cnn(-c4ccccc4)c3)CC2)cc1`, the GI50 was 4990 nM and the TGI amounted to 21300 nM.
Taken in the same sequence, the figures for `CN1CCN(c2nc(-c3csc(-c4cccs4)n3)cc3ccccc23)CC1` were 1690 nM and 3390 nM.
The matching figures for `Cn1cc(C2=C(Nc3ccccc3)C(=O)NC2=O)c2ccccc21`: greater than 23000 nM and greater than 25000 nM.
Consider `CCCCNc1ccc(Nc2ccccc2)cc1`, for which the GI50 is 1810 nM and the TGI amounted to 9420 nM.
Taken in the same sequence, the figures for `Cc1nc2sc(C(=O)c3ccc(Cl)cc3)c(N)c2c(-c2ccccc2Cl)c1C(=O)Nc1ccccc1` were 17500 nM and 37000 nM.
As for `O=[N+]([O-])c1cc([N+](=O)[O-])c(Cl)cc1Cl`, the GI50 was 1660 nM and the TGI is 3380 nM.
For `COc1ccc(-c2c3c(nc4n[nH]c(-c5ccc(Cl)cc5)c24)-c2ccccc2C(=O)C3=O)cc1`, the GI50 was 1650 nM and the TGI is 3470 nM.
On to `NC1(Cc2ccc(Cl)cc2)CCN(c2ncnc3[nH]ccc23)CC1`, for which the GI50 is 1920 nM and the TGI came to 12800 nM.
Turning to `COc1cc2c(c(OC)c1OC)-c1ccc(N=NC(N)=S)c(=O)cc1[C@@H](NC(C)=O)CC2`, the GI50 was 301 nM.
For `CN(CCC(=O)/C(=C\c1ccccc1)c1ccc(Cl)cc1)Cc1ccccc1`, the GI50 is 2140 nM and the TGI was determined as 5960 nM.
Regarding `Cc1nc2cc(Nc3nc(Nc4ccc(F)cc4)nc(N4CCOCC4)n3)ccc2n1Cc1ccccc1`, the GI50 was 1520 nM and the TGI is 4280 nM.
In the case of `COc1cc(Cl)cc(-c2nn(-c3cccc(NC(=O)Nc4ccc(Cl)c(Cl)c4)c3)cc2-c2ccncc2)c1`, the GI50 was 1740 nM and the TGI was found to be 7370 nM.
For the compound `Cc1cccc2c3c(sc12)C(c1ccc(F)cc1)C(C#N)=C(N)O3` (stereo unspecified), the GI50 is 31.5 nM and the TGI is 551 nM.
For the compound `CC(C)C(=O)Nc1ccc(-c2nc(-c3cccc(O)c3)c(-c3ccnc(Br)c3)[nH]2)cc1`, the GI50 was 795 nM and the TGI was 2740 nM.
Consider `O=C1N(Cc2ccccc2Cl)c2ccccc2C12NN=C(c1cccc(Cl)c1)S2` (stereo unspecified), for which the GI50 was 1910 nM and the TGI was 3770 nM.
With `CCCCCCCCCCCCCC[n+]1ccc(C)cc1`, the GI50 was 207 nM and the TGI was 808 nM.
Take `Cc1ccc(C2NC(=O)c3ccccc3N2)c(C)c1` (stereo unspecified): the GI50 was 6400 nM and the TGI was greater than 100000 nM.
On to `Cc1cc(O)c(C2=NN(c3ccc(S(N)(=O)=O)cc3)C(/C=C/c3ccccc3)C2)cc1Cl` (stereo unspecified), for which the GI50 is 3940 nM and the TGI is 13800 nM.
For `CC(C)(C)OC(=O)NCc1cccc(N=C=S)c1`, the GI50 was 14800 nM and the TGI was found to be 48100 nM.
Regarding `O=C(N/N=C/c1cccs1)c1[nH]c2ccc(Br)cc2c1-c1ccccc1`, the GI50 is 88.1 nM and the TGI was 4260 nM.
Regarding `COc1ccc(NC2=C(Cl)C(=O)C(C)=C(C)C2=O)cc1`, the GI50 is 1290 nM and the TGI amounted to 2750 nM.
For the compound `COCCOCCOCc1n(Cc2ccc3ccccc3n2)c2ccccc2[n+]1Cc1ccc2ccccc2n1`, the GI50 is 190 nM and the TGI is 2250 nM.
Regarding `COc1ccc(C(=O)c2sc3nc(-c4cccs4)ccc3c2N)cc1OC`, the GI50 was 1870 nM and the TGI was greater than 100000 nM.
With `NC(=O)c1sc(-n2cnc3cc(C(F)(F)F)ccc32)cc1OCc1ccccc1Br`, the GI50 was greater than 11500 nM and the TGI was greater than 23400 nM.
Turning to `Cc1[nH]c2cc(F)ccc2c1-c1nc2c3cccnc3c3ncccc3c2[nH]1`, the GI50 is 27.3 nM and the TGI was 82.8 nM.
